Tests used:
human CYP4A11 = human CYP4A11 (Homo sapiens (Human), UniProt Q02928); assay: Inhibition test against 20-HETE producing enzyme CYP4A11 (luciferine derivative, luminescence); format: biochemical
How it was run: (§1)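 IC50 derived from luminescence after 60 min at room temperature with membrane fractions of E. coli expressing each human CYP (100 μg/mL protein). For CYP4A11, 60 μM luciferin derivative in 100 mM Tris-HCl pH 7.5 with NADPH-regenerating system; for CYP4F2, 2.5 μM substrate, 1 mM NADPH, 50 mM KPO4 pH 7.4.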

human CYP4F2 = human CYP4F2 (Homo sapiens (Human), UniProt P78329); assay: Inhibition test against 20-HETE producing enzyme CYP4F2 (luciferine derivative, luminescence); format: biochemical
Chain of human CYP4F2 (P78329 5-520): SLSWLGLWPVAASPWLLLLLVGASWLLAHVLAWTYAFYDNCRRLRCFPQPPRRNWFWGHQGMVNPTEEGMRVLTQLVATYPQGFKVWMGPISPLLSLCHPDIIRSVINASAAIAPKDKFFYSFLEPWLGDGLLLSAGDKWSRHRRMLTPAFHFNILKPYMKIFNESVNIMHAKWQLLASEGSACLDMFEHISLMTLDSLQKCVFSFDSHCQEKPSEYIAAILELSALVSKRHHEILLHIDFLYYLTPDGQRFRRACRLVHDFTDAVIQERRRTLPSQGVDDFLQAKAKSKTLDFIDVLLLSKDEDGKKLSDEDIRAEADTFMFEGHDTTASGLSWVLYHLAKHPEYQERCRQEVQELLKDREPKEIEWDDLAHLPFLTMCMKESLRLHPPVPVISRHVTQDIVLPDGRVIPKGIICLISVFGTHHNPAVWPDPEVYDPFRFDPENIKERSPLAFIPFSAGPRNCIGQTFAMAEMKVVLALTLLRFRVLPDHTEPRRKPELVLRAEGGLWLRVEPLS
How it was run: as §1

[1] = E. coli membrane fraction expressing human CYP4A11, 60 μM luciferine derivative, room temperature 60 minutes
[2] = E. coli membrane fraction expressing human CYP4F2, 2.5 μM luciferine derivative, room temperature 60 minutes
[3] = human CYP4A11, luciferine derivative, luminescence
[4] = human CYP4F2, luciferine derivative, luminescence

Chain of human CYP4A11 (Q02928 5-519): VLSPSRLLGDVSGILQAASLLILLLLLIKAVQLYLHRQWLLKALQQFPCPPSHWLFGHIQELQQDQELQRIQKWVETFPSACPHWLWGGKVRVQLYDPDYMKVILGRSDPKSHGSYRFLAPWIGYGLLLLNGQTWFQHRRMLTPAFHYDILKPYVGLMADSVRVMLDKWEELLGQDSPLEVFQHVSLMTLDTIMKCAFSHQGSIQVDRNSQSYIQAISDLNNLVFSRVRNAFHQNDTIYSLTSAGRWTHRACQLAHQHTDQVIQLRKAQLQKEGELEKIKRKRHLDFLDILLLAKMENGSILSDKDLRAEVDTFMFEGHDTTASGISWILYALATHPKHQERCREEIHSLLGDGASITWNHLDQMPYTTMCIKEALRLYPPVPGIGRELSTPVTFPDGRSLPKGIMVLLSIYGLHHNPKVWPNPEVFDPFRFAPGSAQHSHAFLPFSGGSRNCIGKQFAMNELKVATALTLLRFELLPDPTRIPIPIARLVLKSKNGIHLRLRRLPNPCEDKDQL

Compound | IC50 (human CYP4A11; [1]) [nM] | IC50 (human CYP4F2; [2]) [nM] | IC50 (human CYP4A11; [3]) [nM] | IC50 (human CYP4F2; [4]) [nM]
CC(C)(CCCS(=O)(=O)c1cccc(COc2ccc(-c3ccn[nH]3)nc2)c1)C(=O)O [Example 37-1, 2,2-Dimethyl-5-[3-[[6-(1H-pyrazol-5-yl)-3-pyridinyl]oxymethyl]phenyl] sulfonylpentanoic Acid] | 46 | 32 |  | 
O=C(O)CCc1cccc(COc2cnc(-c3ccn[nH]3)c(F)c2)c1 [Example 38-1, 3-[3-[[5-Fluoro-6-(1H-pyrazol-5-yl)-3-pyridinyl]oxymethyl]phenyl]propanoic Acid] | 20 | 1100 |  | 
O=C(O)Cc1cccc(COc2ccc(-c3cn[nH]c3)nc2)c1 [Example 38-2, 2-[3-[[6-(1H-Pyrazol-4-yl)-3-pyridinyl]oxymethyl]phenyl]acetic Acid] | 11 | 19000 |  | 
Cc1cn[nH]c1-c1ccc(OCC23CCC(C(=O)O)(CC2)CC3)cn1 [Example 38-3, 1-[[6-(4-Methyl-1H-pyrazol-5-yl)-3-pyridinyl]oxymethyl]-4-bicyclo[2.2.2]octanecarboxylic Acid] | 35 | 17000 |  | 
O=C(O)Cc1cccc(COc2ccc(-c3ccns3)nc2)c1 [Example 39-1, 2-[3-[[6-(5-Isothiazolyl)-3-pyridinyl]oxymethyl]phenyl]acetic Acid] | 5.3 | 13000 |  | 
O=C(O)C12CCC(COc3ccc(-c4ccns4)nc3)(CC1)CC2 [Example 39-2] | 18 | 22000 |  | 
O=C(O)Cc1cccc(COc2ccc(-c3cnco3)nc2)c1 [Example 40-1, 2-[3-[[6-(5-Oxazolyl)-3-pyridinyl]oxymethyl]phenyl]acetic Acid] | 9.9 | 28000 |  | 
O=C(O)Cc1cccc(COc2ccc(-c3cncs3)nc2)c1 [Example 40-2] | 6.9 | 8200 |  | 
NS(=O)(=O)c1cccc(C(=O)N2CCC[C@@H](COc3ccc(-c4ccn[nH]4)nc3)C2)c1 [Example 41-1, 3-[Oxo-[(3R)-3-[[6-(1H-pyrazol-5-yl)-3-pyridinyl]oxymethyl]-1-piperidinyl]methyl]benzenesulfonamide] | 250 | 590 |  | 
NS(=O)(=O)c1ccc(C(=O)N2CCC[C@@H](COc3ccc(-c4ccn[nH]4)nc3)C2)cc1 [Example 41-2] | 330 | 450 |  | 
O=C(c1ccc(=O)[nH]c1)N1CCC[C@@H](COc2ccc(-c3ccn[nH]3)nc2)C1 [Example 41-3] | 570 | 4300 |  | 
O=C(c1cccc(=O)[nH]1)N1CCC[C@@H](COc2ccc(-c3ccn[nH]3)nc2)C1 [Example 41-4] | 710 | 1500 |  | 
CCS(=O)(=O)NCC(=O)N1CCC[C@@H](COc2ccc(-c3ccn[nH]3)nc2)C1 [Example 41-5] | 1100 | 550 |  | 
NS(=O)(=O)CCCC(=O)N1CCC[C@@H](COc2ccc(-c3ccn[nH]3)nc2)C1 [Example 41-6] | 440 | 320 |  | 
CNC(=O)c1cccc(COc2ccc(-c3ccn[nH]3)nc2)c1 [Example 42-1, N-Methyl-3-[[6-(1H-pyrazol-5-yl)-3-pyridinyl]oxymethyl]benzamide] | 420 | 76 |  | 
CCCNC(=O)c1cccc(COc2ccc(-c3ccn[nH]3)nc2)c1 [Example 42-2] | 110 | 25 |  | 
O=C(NCCO)c1cccc(COc2ccc(-c3ccn[nH]3)nc2)c1 [Example 42-3] | 350 | 210 |  | 
CNC(=O)Cc1cccc(COc2ccc(-c3ccn[nH]3)nc2)c1 [Example 42-4] | 540 | 12 |  | 
CN(C)C(=O)Cc1cccc(COc2ccc(-c3ccn[nH]3)nc2)c1 [Example 42-5] | 200 | 260 |  | 

Compound | IC50 (human CYP4A11; [1]) [nM] | IC50 (human CYP4F2; [2]) [nM] | IC50 (human CYP4A11; [3]) [nM] | IC50 (human CYP4F2; [4]) [nM]
CCCNC(=O)Cc1cccc(COc2ccc(-c3ccn[nH]3)nc2)c1 [Example 42-6] | 300 | 97 |  | 
O=C(Cc1cccc(COc2ccc(-c3ccn[nH]3)nc2)c1)NCCO [Example 42-7] | 760 | 1100 |  | 
CNC(=O)CCc1cccc(COc2ccc(-c3ccn[nH]3)nc2)c1 [Example 42-8] | 120 | 70 |  | 
CN(C)C(=O)CCc1cccc(COc2ccc(-c3ccn[nH]3)nc2)c1 [Example 42-9] | 67 | 76 |  | 
CCCNC(=O)CCc1cccc(COc2ccc(-c3ccn[nH]3)nc2)c1 [Example 42-10] | 46 | 15 |  | 
O=C(CCc1cccc(COc2ccc(-c3ccn[nH]3)nc2)c1)NCCO [Example 42-11] | 100 | 95 |  | 
O=C(CCc1cccc(COc2ccc(-c3ccn[nH]3)nc2)c1)N1CCC1 [Example 42-12] | 44 | 42 |  | 
O=C(CCc1cccc(COc2ccc(-c3ccn[nH]3)nc2)c1)N1CCCC1 [Example 42-13] | 150 | 15 |  | 
O=C(CCc1cccc(COc2ccc(-c3ccn[nH]3)nc2)c1)N1CCCCC1 [Example 42-14] |  |  | 240 | 30
O=C(CCc1cccc(COc2ccc(-c3ccn[nH]3)nc2)c1)N1CCOCC1 [Example 42-15] |  |  | 400 | 140
CN(C)C(=O)/C=C/c1cccc(COc2ccc(-c3ccn[nH]3)nc2)c1 [Example 42-16] |  |  | 210 | 5.7
O=C(CCc1cccc(COc2cnc(-c3ccn[nH]3)c(F)c2)c1)N1CCC1 [Example 42-17] |  |  | 35 | 12
O=C(CCc1cccc(COc2cnc(-c3ccn[nH]3)c(F)c2)c1)NCCO [Example 42-18] |  |  | 58 | 21
O=C(CCc1cccc(COc2cnc(-c3ccn[nH]3)c(F)c2)c1)N1CC(O)C1 [Example 42-19] |  |  | 110 | 47
O=C(CCc1cccc(COc2cnc(-c3ccn[nH]3)c(F)c2)c1)NC1COC1 [Example 42-20] |  |  | 76 | 11
CN(C)C(=O)[C@H]1C[C@](O)(c2cccc(COc3ccc(-c4ccn[nH]4)nc3)c2)C1 [Example 42-21] |  |  | 430 | 28
CN(C)C(=O)[C@H]1C[C@](O)(c2cc(COc3ccc(-c4ccn[nH]4)nc3)ccc2F)C1 [Example 42-22] |  |  | 270 | 99
CNC(=O)C(C)c1cccc(COc2ccc(-c3ccn[nH]3)nc2)c1 (centres unmarked) [Example 42-23] |  |  | 160 | 55
CNC(=O)C(C)(C)c1cccc(COc2ccc(-c3ccn[nH]3)nc2)c1 [Example 42-24] |  |  | 39 | 150

More lines, now with the values ahead:

IC50 (human CYP4A11; [1]) [nM] | IC50 (human CYP4F2; [2]) [nM] | IC50 (human CYP4A11; [3]) [nM] | IC50 (human CYP4F2; [4]) [nM] | Compound
 |  | 58 | 52 | O=C(CCc1cccc(COc2ccc(-c3ccn[nH]3)nc2)c1)N1CC(F)C1 [Example 43-1, 1-(3-Fluoro-1-azetidinyl)-3-[3-[[6-(1H-pyrazol-5-yl)-3-pyridinyl]oxymethyl]phenyl]-1-propanone]
 |  | 59 | 48 | O=C(CCc1cccc(COc2ccc(-c3ccn[nH]3)nc2)c1)N1CC(F)(F)C1 [Example 43-2]
 |  | 310 | 170 | CN(CCO)C(=O)CCc1cccc(COc2ccc(-c3ccn[nH]3)nc2)c1 [Example 43-3]
 |  | 150 | 45 | O=C(CCc1cccc(COc2ccc(-c3ccn[nH]3)nc2)c1)NC1COC1 [Example 43-4]
 |  | 82 | 40 | COCCNC(=O)CCc1cccc(COc2ccc(-c3ccn[nH]3)nc2)c1 [Example 43-5]
 |  | 56 | 92 | C[C@@H](O)CNC(=O)CCc1cccc(COc2ccc(-c3ccn[nH]3)nc2)c1 [Example 43-6]
 |  | 320 | 63 | C[C@@H](CO)NC(=O)CCc1cccc(COc2ccc(-c3ccn[nH]3)nc2)c1 [Example 43-7]
 |  | 120 | 120 | C[C@H](CO)NC(=O)CCc1cccc(COc2ccc(-c3ccn[nH]3)nc2)c1 [Example 43-8]
 |  | 130 | 73 | C[C@H](O)CNC(=O)CCc1cccc(COc2ccc(-c3ccn[nH]3)nc2)c1 [Example 43-9]
 |  | 140 | 190 | O=C(CCc1cccc(COc2ccc(-c3ccn[nH]3)nc2)c1)N1CC(O)C1 [Example 43-10]
 |  | 280 | 32 | O=C(CCc1cccc(COc2ccc(-c3ccn[nH]3)nc2)c1)NCC(=O)N1CCCC1 [Example 43-11]
 |  | 76 | 40 | CO[C@H](C)CNC(=O)CCc1cccc(COc2ccc(-c3ccn[nH]3)nc2)c1 [Example 43-12]
 |  | 48 | 21 | O=C(CCc1cccc(COc2ccc(-c3ccn[nH]3)nc2)c1)NC[C@H]1CCCO1 [Example 43-13]
 |  | 52 | 18 | O=C(CCc1cccc(COc2ccc(-c3ccn[nH]3)nc2)c1)NC[C@@H]1CCCO1 [Example 43-14]
 |  | 910 | 280 | CN(C)CCNC(=O)CCc1cccc(COc2ccc(-c3ccn[nH]3)nc2)c1 [Example 43-15]
 |  | 190 | 22 | CN(C)C(=O)C1CC1c1cccc(COc2ccc(-c3ccn[nH]3)nc2)c1 (centres unmarked) [Example 43-16]
 |  | 49 | 7500 | CS(=O)(=O)NC(=O)c1cccc(COc2ccc(-c3ccn[nH]3)nc2)c1 [Example 44-1, N-Methylsulfonyl-3-[[6-(1H-pyrazol-5-yl)-3-pyridinyl]oxymethyl]benzamide]
 |  | 340 | 73 | CN(C(=O)c1cccc(COc2ccc(-c3ccn[nH]3)nc2)c1)S(C)(=O)=O [Example 44-2]
 |  | 44 | 11000 | CS(=O)(=O)NC(=O)Cc1cccc(COc2ccc(-c3ccn[nH]3)nc2)c1 [Example 44-3]
 |  | 410 | 290 | CN(C(=O)Cc1cccc(COc2ccc(-c3ccn[nH]3)nc2)c1)S(C)(=O)=O [Example 44-4]
